Assay results: patent US9211244B2, “Method for anti-skin aging using caffeamide derivative” (CHINA MEDICAL UNIVERSITY, priority 2013, dated 2015)

Assays:
[1] = Scavenging test of DPPH free radical; format: biochemical; conditions: for Scavenging efficiency (%): 200 μM DPPH, 30 minutes
Procedure: DPPH (1,1-diphenyl-2-picrylhydrazyl) was used as a source of free radicals to examine the scavenging efficiency of the caffeamide derivatives prepared in Example 1 on free radicals. […] The mixtures were placed in the dark at room temperature for 30 minutes and its absorbance at 517 nm was measured by an enzyme immunoassay analyzer. In this experiment, 50 volume % propanediol was used to replace extracts and to be a control group, ascorbic acid (vitamin C) was used as a positive control group, and methanol was used to replace DPPH as the background value. The scavenging efficiency of caffeamide derivatives on free radicals was examined by the formula blow, and the results are shown in Table 2, FIG. 1a, and FIG. 1b. Scavenging efficiency(%)=[the absorbance of the control group−the absorbance of the experimental group/the absorbance of the control group]×100%.

[2] = test system: human fibroblast Hs68 cells; experiment: Scavenging test of ROS free radicals in UVB-irradiated cells; format: cell-based; conditions: UVB 80 mJ/cm^2, 24 hours
Procedure: After incubated in an incubator (37° C., 5% CO2) for 24 hours, the ROS level was examined.

MMP-9 = format: cell-based, human; conditions: 10 μM; UVB 40 mJ/cm^2; 48 hours
Procedure: After incubating for 1 hour, the cells were irradiated by UV light (UVB with an intensity of 40 mJ/cm^2) for 15 seconds. […] After incubation in an incubator (37° C., 5% CO2) for 48 hours, the cells were collected.
The collected cells were treated with a sonication buffer (containing Na3VO4 (100 μM), phenylmethanesulfonyl fluoride (PMSFL, 100 mg/ml), leupeptin (20 mg/ml), Tris-HCl (pH 7.4, 50 μM), NaCl (37.5 μM), DL-dithiothretiol (250 μM), sodium deoxycholate (3 μM), EDTA (1 μM), SDS (0.1%), and Igepal™ CA-630 (Sigma-Aldrich, 1%)) and sonicated to rupture the cell membranes. Then, the organelles and fragments of the cells were precipitated by centrifugation, and the supernatant, which contains proteins in the cytosol was collected. Next, the obtained proteins were separated by SDS-PAGE, and transferred to a membrane by western blotting. Antibodies were used to recognize the targeted proteins, such as MMP-1, MMP-3, MMP-9, and actin. The images were recorded by a Luminescent imagination technology (LAS-4000, FUJIFILM), and the variation of the proteins expression levels were determined by a quantitative analysis software (multi Gauge 2.2, Steware Technology Inc.).

p-ERK = experiment: Inhibition test of the phosphorylation of MAPK, western blot; format: cell-based, human; conditions: 10 μM; UVB 40 mJ/cm^2
Procedure: (§1) It has been known that the skin photo-aging caused by UV rays will increase the content of MMPs in the dermis by the phosphorylation of MAPK. In this experiment, the effect of caffeamide derivative on the phosphorylation of MAPK in the cells was analyzed by western blotting.
(§2) After being treated with the compound of formula (2) prepared in Example 1, the protein expression levels of the MAPKs induced by UVB were inhibited in a concentration dependent way. Specifically, when the concentration of the compound of formula (2) was 10 μM, the expression level of P-ERK was 1.1 times as compared to that of the untreated cells. When the concentration of the compound of formula (2) was 5 μM, the expression levels of p-JNK and p-p38 were both 1.1 times as compared to that of the untreated cells.

p-JNK = experiment: as above; format: cell-based, human; conditions: 5 μM; UVB 40 mJ/cm^2
Procedure: as §1, §2

p-p38 = experiment: as above; format: cell-based, human; conditions: 5 μM; UVB 40 mJ/cm^2
Procedure: as §1, §2

c-Fos = experiment: Inhibition test of AP-1 gene transcription factors, western blot; format: cell-based, human; conditions: 10 μM; UVB 40 mJ/cm^2
Description: When cells are irradiated by UV rays, JNK, p38 and c-Jun in the cells will translocated into the nucleus, and c-For will translocate into the nucleus under the regulation of ERK and p38. The two subunits of c-Jun and c-Fos will combine to form an AP-1 gene transcription factor to participate in gene expression process and increase the mRNA transcription level of MMP-1. On the other hand, the two subunits can also reduce the gene expression level of procollagen al of Type I collagen. Therefore, in this experiment, the expression of AP-1 in the nucleus was analyzed by western blotting.
However, after the cells were treated with the compound of formula (2) prepared in Example 1, the protein expression levels of c-Fos, p-c-Jun, and c-Jun induced by UVB were inhibited in a concentration dependent way. Specifically, when the concentration of the compound of formula (2) was 10 μM, the expression level of c-Fos was 1.1 as compared to that of the untreated cells.

Smad3 = experiment: Promotion test of the expression of collagen, western blot; format: cell-based, human; conditions: 25 μM; UVB 40 mJ/cm^2
Procedure: (§3) It has been known that Smad3 protein can promote the expression level of procollagen-1, and Smad7 protein can inhibit the expression level of Smad3 protein. After cells were irradiated with UV rays, the expression levels of procollagen-1 and Smad3 protein will reduce and the expression level of Smad7 protein will increase. Therefore, in this experiment, the expression levels of intracellular procollagen-1 protein, Smad3 protein and Smad7 protein were analyzed by western blotting.
(§4) Specifically, when the concentration of the compound of formula (2) was 25 μM, the protein expression level of Smad7 was 1.1 times as compared to that of the untreated cells.

Smad7 = experiment: as above; format: cell-based, human; conditions: 25 μM; UVB 40 mJ/cm^2
Procedure: as §3, §4

procollagen-1 = experiment: as above; format: cell-based, human; conditions: 25 μM; UVB 40 mJ/cm^2
Procedure: as §3, §4

skin of white rabbit = experiment: Primary skin irritation test; format: in vivo, New Zealand white rabbit
Procedure: First, 20 mg (low dosage) and 80 mg or 100 mg (high dosage) of the compounds of formula (1) and formula (2) prepared in Example 1 were dissolved in 1 ml of 40% PEG-400 solution, respectively. Next, a New Zealand white rabbit was fixed on a rabbit cage and the fur on its back was clipped. A color pen was used to draw six squares (2.5 cm×2.5 cm for each square) of smearing region. The six squares were divided into keratin intact group and keratin abraded group. In the keratin abraded group, a sterile needle was used to scrape four parallel lines inside the squares on the back of the white rabbit to damage the keratin layer, but without bleeding. Low dosage and high dosage of compounds of formula (1) or formula (2) were smeared inside the squares evenly. After 24 hours, the skin of white rabbit was wiped with physiologic saline solution to remove compounds of formula (1) or formula (2). […] The observation time should be extended when the irritation was shown.
The statistical method of this test was analyzed by ANOVA (analysis of variance) and Student's t-test; p<0.05 indicates a statistical significance. Each experiment was performed over three times, and the results are shown by the standard error of the mean (mean±standard error). The results are shown in Table 7A, Table 7B, FIGS. 11a to 11d, and FIGS. 12a to 12d.

Compound: O=C(C=Cc1ccc(O)c(O)c1)NCCc1ccc(Br)cc1 [Compound of formula (2)]
- Scavenging efficiency (%) ([1]; 1 μM): 6.4 ± 4.9%
- Scavenging efficiency (%) ([1]; 5 μM): 12.9 ± 3.5%
- Scavenging efficiency (%) ([1]; 10 μM): 26.5 ± 0.9%
- Scavenging efficiency (%) ([1]; 25 μM): 62.1 ± 2.9%
- Scavenging efficiency (%) ([1]; 50 μM): 96.6 ± 0.4%
- EC50 ([1]; DPPH free radical scavenging, read-out: SC50 (the source's name)): 20 ± 1 µM
- Concentration of ROS (times compared to the untreated cells) ([2]; 5 μM): 1.0 ± 0.09 times
- Concentration of ROS (times compared to the untreated cells) ([2]; 10 μM): 0.9 ± 0.02 times
- Concentration of ROS (times compared to the untreated cells) ([2]; 10 μM, listed as compound of formula (2)): 0.9 times
- Concentration of ROS (times compared to the untreated cells) ([2]; 25 μM): 0.8 ± 0.04 times
- Concentration of ROS (times compared to the untreated cells) ([2]; 25 μM, listed as compound of formula (2)): 0.8 times
- expression level of MMP-9 as compared to that of the untreated cells (MMP-9): 0.7 times
- expression level of p-ERK as compared to that of the untreated cells (p-ERK): 1.1 times
- expression level of p-JNK as compared to that of the untreated cells (p-JNK): 1.1 times
- expression level of p-p38 as compared to that of the untreated cells (p-p38): 1.1 times
- expression level of c-Fos as compared to that of the untreated cells (c-Fos): 1.1
- protein expression level of Smad3 inhibited by UVB, reversed to (Smad3): 0.5 times
- protein expression level of Smad7 as compared to that of the untreated cells (Smad7): 1.1 times
- protein expression level of procollagen-1 decreased by UVB, reversed to (procollagen-1): 0.4 times
- primary irritation index (PII), mean ± standard error (skin of white rabbit; 20 mg, 24 hour, abraded skin): 0.0 ± 0.0
- primary irritation index (PII), single rabbits 1-3 (skin of white rabbit; 20 mg, 24 hour, abraded skin): 0
- primary irritation index (PII), mean ± standard error (skin of white rabbit; 20 mg, 24 hour, intact skin): 0.0 ± 0.0
- primary irritation index (PII), single rabbits 1-3 (skin of white rabbit; 20 mg, 24 hour, intact skin): 0
- primary irritation index (PII), mean ± standard error (skin of white rabbit; 20 mg, 72 hour, abraded skin): 0.0 ± 0.0
- primary irritation index (PII), single rabbits 1-3 (skin of white rabbit; 20 mg, 72 hour, abraded skin): 0
- primary irritation index (PII), mean ± standard error (skin of white rabbit; 20 mg, 72 hour, intact skin): 0.0 ± 0.0
- primary irritation index (PII), single rabbits 1-3 (skin of white rabbit; 20 mg, 72 hour, intact skin): 0
- primary irritation index (PII), mean ± standard error (skin of white rabbit; 80 mg, 24 hour, abraded skin): 0.7 ± 0.6
- primary irritation index (PII), mean ± standard error (skin of white rabbit; 80 mg, 24 hour, intact skin): 0.0 ± 0.0
- primary irritation index (PII), single rabbits 1-3 (skin of white rabbit; 80 mg, 24 hour, intact skin): 0
- primary irritation index (PII), mean ± standard error (skin of white rabbit; 80 mg, 72 hour, abraded skin): 0.3 ± 0.6
- primary irritation index (PII), mean ± standard error (skin of white rabbit; 80 mg, 72 hour, intact skin): 0.0 ± 0.0
- primary irritation index (PII), single rabbits 1-3 (skin of white rabbit; 80 mg, 72 hour, intact skin): 0
